Data as given in patent publication US20100249132A1, “IMIDAZOLE DERIVATIVES” (MERCK PATENT GESELLSCHAFT MIT BESCHRANKTER HAFTUNG, priority 2007, published 2010).

What follows are molecules tested against T1, recombinant autotaxin (Homo sapiens, UniProt Q13822) (assay: Autotaxin test (enzyme test), Amplex Red fluorescence). Conditions: substrate LPC 75 μM, Amplex Red detection, read-out: IC50 (autotaxin inhibition, enzyme test).
T1 construct: made in house; host or cells: Hi5 insect cells (baculovirus)
Assay type: biochemical
Description: Autotaxin Inhibition (Enzyme Test)
Autotaxin Test (Enzyme Test)
The autotaxin activity is measured indirectly using Amplex Red reagent. Amplex Red is measured here as fluorogenic indicator for the H2O2 formed. In detail, autotaxin converts the substrate lysophosphatidylcholine (LPC) into phosphocholine and lysophosphatidylic acid (LPA). After this reaction, the phosphocholine is reacted with alkaline phosphatase to give inorganic phosphate and choline. In the next step, choline is oxidised by choline oxidase to give betaine, with formation of H2O2. H2O2 reacts with Amplex Red reagent in the presence of peroxidase (horseradish peroxidase) in a 1:1 stoichiometry and forms the highly fluorescent resorufin. The fluorescence is measured in a reaction-dependent kinetic mode in order that fluorescent signals from possible other fluorescent substances which are not involved in the reaction can be corrected out.
1.5 μl of a standard solution or of the test substances (substances with the name A(n)) in individual concentrations dissolved in 20 mM Hepes pH 7.2 with a maximum of 7.7% of DMSO are pre-incubated together with 10 μl (16 ng) of highly purified recombinant autotaxin in a black microtitre plate provided with 384 wells at 22° C. for 30 min. The reaction is then initiated by addition of 5 μl of L-α-lysophosphatidylcholine (LPC), where the final concentration of LPC is 75 μM. The mixture is incubated at 37° C. for 90 min. After the incubation, Amplex Red reagent, peroxidase (horseradish peroxidase) and choline oxidase is added, and the fluorescence is immediately measured at 612 nm with excitation of 485 nm in a “Tecan Ultra multimode” reader. The activity of autotaxin is calculated indirectly via detection of the H2O2 formed. • Material: • Microtitre plate: PS microplate, 384 wells, small volume, black Corning, Cat #3677 • Protein: recombinant autotaxin (Baculovirale Hi5 Expression) • Substrate: L-α-lysophosphatidylcholine (chicken egg)); Avanti Polar Lipids #830071 P • Standard: C14 LPA, Avanti Polar Lipids, Cat #857120P • Detection reagent: Amplex Red reagent; Invitrogen #A12222; dissolved in 1.923 ml of DMSO peroxidase type VI-A (horseradish) from Sigma #P6782; dissolved in 7.45 ml of test buffer, choline oxidase; Sigma #C5896; dissolved in 2.47 ml of test buffer • Detection reagent mix: 1:100 dilution of Amplex Red reagent in test buffer • Test buffer: 200 mM Tris HCl, Merck, Cat #1.08219, pH 7.9, 0.1% of BSA, lipid-free, Roche Cat #775835

Row | SMILES | IC50 [µM]
1 | CCCCOc1ccc(NC(=O)Nc2[nH]c(Cc3ccc(CO)cc3)nc2C(N)=O)cc1 [Compound A100, 5-[3-(4-butoxyphenyl)ureido]-2-(4-hydroxy-methylbenzyl)-1H-imidazole-4-carboxamide] | > 10
2 | NC(=O)c1nc(-c2ccc(OCC(=O)O)cc2)[nH]c1NC(=O)Nc1ccccc1Cl [Compound A47, (4-{4-Carbamoyl-5-[3-(2-chlorophenyl)ureido]-1H-imidazol-2-yl}phenoxy)acetic acid] | > 10
3 | CCCCc1ccc(NC(=O)Nc2[nH]c(Cc3ccc(C(=O)N4CCCCC4)o3)nc2C(N)=O)cc1 [Compound A88, 5-[3-(4-Butylphenyl)ureido]-2-[5-(piperidine-1-carbonyl)furan-2-ylmethyl]-1H-imidazole-4-carboxamide] | > 10
4 | CCCCc1ccc(NC(=O)Nc2[nH]c(Cc3ccc(C(=O)N(CCCC)CCCC)o3)nc2C(N)=O)cc1 [Compound A80, 5-[3-(4-Butylphenyl)ureido]-2-(5-dibutyl-carbamoylfuran-2-ylmethyl)-1H-imidazole-4-carboxamide] | > 10
5 | NC(=O)c1nc(Cc2ccc(OCC(=O)O)cc2)[nH]c1NC(=O)Nc1ccc(Oc2ccccc2)cc1 [Compound A45, (4-{4-Carbamoyl-5-[3-(4-phenoxyphenyl)ureido]-1H-imidazol-2-ylmethyl}phenoxy)acetic acid] | > 10
6 | CC(C)(CCc1nc(C(N)=O)c(NC(=O)Nc2ccc(Cl)cc2)[nH]1)C(=O)O [Compound B75] | > 10
7 | Cc1cc(C)cc(NC(=O)Nc2[nH]c(-c3ccc(CC(=O)O)cc3)nc2C(N)=O)c1 [Compound A25, (4-{4-Carbamoyl-5-[3-(3,5-dimethylphenyl)-ureido]-1H-imidazol-2-yl}phenyl)acetic acid] | > 10
8 | NC(=O)c1nc(Cc2ccc(C(=O)O)cc2)[nH]c1NC(=O)Nc1cc(C(F)(F)F)ccc1F [Compound A17, 4-{4-Carbamoyl-5-[3-(2-tluoro-5-trifluoromethyl-phenyl)ureido]-1H-imidazol-2-ylmethyl}benzoic acid] | > 10
9 | NC(=O)c1nc(-c2ccc(CC(=O)O)cc2)[nH]c1NC(=O)Nc1ccc(C(F)(F)F)cc1 [Compound A20, (4-{4-Carbamoyl-5-[3-(4-trifluoromethylphenyl)-ureido]-1H-imidazol-2-yl}phenyl)acetic acid] | > 10
10 | CCCCCCNC(=O)Nc1[nH]c(Cc2ccc(C(=O)O)cc2)nc1C(N)=O [Compound A4, 4-[4-Carbamoyl-5-(3-hexylureido)-1H-imidazol-2-ylmethyl]benzoic acid] | > 10
11 | CCCCc1ccc(NC(=O)Nc2[nH]c(Cc3ccc(C(=O)N(C)CCCC)o3)nc2C(N)=O)cc1 [Compound A79, 2-[5-(Butylmethylcarbamoyl)furan-2-ylmethyl]-5-[3-(4-butylphenyl)ureido]-1H-imidazole-4-carboxamide] | > 10
12 | NC(=O)c1nc(CCC(=O)Nc2ccc3[nH]nnc3c2)[nH]c1NC(=O)Nc1ccc(Cl)cc1 [Compound B80] | > 10

Further lines, results first:

Row | IC50 [µM] | SMILES
13 | > 10 | NC(=O)c1nc(Cc2ccc(C(=O)O)s2)[nH]c1NC(=O)Nc1ccc(F)c(C(F)(F)F)c1 [Compound A75, 5-{4-Carbamoyl-5-[3-(4-fluoro-3-trifluoromethyl-phenyl)ureido]-1H-imidazol-2-ylmethyl}-thiophene-2-carboxylic acid]
14 | > 10 | NC(=O)c1nc(Cc2ccc(OCC(=O)O)cc2)[nH]c1NC(=O)Nc1cccc(C(F)(F)F)c1 [Compound A37, (4-{4-Carbamoyl-5-[3-(3-trifluoromethylphenyl)-ureido]-1H-imidazol-2-ylmethyl}phenoxy)acetic acid]
15 | > 10 | NC(=O)c1nc(Cc2ccc(OCC(=O)O)cc2)[nH]c1NC(=O)Nc1ccc(F)cc1 [Compound A36, (4-{4-Carbamoyl-5-[3-(4-fluorophenyl)ureido]-1H-imidazol-2-ylmethyl}phenoxy)acetic acid]
16 | 1 to 10 | Cc1cc(Cl)ccc1NC(=O)Nc1[nH]c(COc2ccc(CC(=O)O)cc2)nc1C(N)=O [Compound A62, (4-{4-Carbamoyl-5-[3-(4-chloro-2-methylphenyl)-ureido]-1H-imidazol-2-ylmethoxy}phenyl)acetic acid]
17 | > 10 | CCc1cccc(CC)c1NC(=O)Nc1[nH]c(Cc2ccc(C(=O)O)o2)nc1C(N)=O [Compound A28, 5-{4-Carbamoyl-5-[3-(2,6-diethylphenyl)ureido]-1H-imidazol-2-ylmethyl}furan-2-carboxylic acid]
18 | > 10 | Cc1ccccc1NC(=O)Nc1[nH]c(Cc2ccc(C(=O)O)s2)nc1C(N)=O [Compound A67, 5-[4-Carbamoyl-5-(3-o-tolylureido)-1H-imidazol 2-ylmethyl]thiophene-2-carboxylic acid]
19 | > 10 | NC(=O)c1nc(CCCCN2C(=O)c3ccccc3C2=O)[nH]c1NC(=O)Nc1ccc(Cl)cc1 [Compound B77]
20 | > 10 | NC(=O)c1nc(CN2C(=O)c3ccccc3C2=O)[nH]c1NC(=O)Nc1ccc(Cl)cc1 [Compound B78]
21 | 1 to 10 | CCc1ccc(NC(=O)Nc2[nH]c(Cc3ccc(C(=O)O)s3)nc2C(N)=O)cc1 [Compound A72, 5-{4-Carbamoyl-5-[3-(4-ethylphenyl)ureido]-1H-imidazol-2-ylmethyl}thiophene-2-carboxylic acid]
22 | > 10 | CCCCc1ccc(NC(=O)Nc2[nH]c(Cc3ccc(C(=O)N4CCN(c5ccccc5)CC4)o3)nc2C(N)=O)cc1 [Compound A86, 5-[3-(4-Butylphenyl)ureido]-2-[5-(4-phenyl-piperazine-1-carbonyl)furan-2-ylmethyl]-1H-imidazole-4-carboxamide]
23 | 1 to 10 | CC(C)c1ccc(NC(=O)Nc2[nH]c(-c3ccc(OCC(=O)O)cc3)nc2C(N)=O)cc1 [Compound A51, (4-{4-Carbamoyl-5-[3-(4-isopropylphenyl)ureido]-1H-imidazol-2-yl}phenoxy)acetic acid]
24 | 1 to 10 | Cc1c(Cl)cccc1NC(=O)Nc1[nH]c(Cc2ccc(C(=O)O)cc2)nc1C(N)=O [Compound A8, 4-{4-Carbamoyl-5-[3-(3-chloro-2-methylphenyl)-ureido]-1H-imidazol-2-ylmethyl}benzoic acid]
25 | 1 to 10 | NC(=O)c1nc(Cc2ccc(OCC(=O)O)cc2)[nH]c1NC(=O)Nc1ccc(Cl)cc1 [Compound A41, (4-{4-Carbamoyl-5-[3-(4-chlorophenyl)ureido]-1H-imidazol-2-ylmethyl}phenoxy)acetic acid]
26 | 1 to 10 | NC(=O)c1nc(Cc2ccc(N)cc2)[nH]c1NC(=O)Nc1ccc(C(F)(F)F)cc1 [Compound A97, 2-(4-aminobenzyl)-5-[3-(4-trifluoromethylphenyl)-ureido]-1H-imidazole-4-carboxamide]
27 | 1 to 10 | NC(=O)c1nc(-c2ccc(OCC(=O)O)cc2)[nH]c1NC(=O)Nc1cccc(C(F)(F)F)c1 [Compound A49, (4-{4-Carbamoyl-5-[3-(3-trifluoromethylphenyl)-ureido]-1H-imidazol-2-yl}phenoxy)acetic acid]
28 | 1 to 10 | NC(=O)c1nc(Cc2ccc(C(=O)O)cc2)[nH]c1NC(=O)Nc1ccc(OC(F)(F)F)cc1 [Compound A93, 4-{4-Carbamoyl-5-[3-(4-trifluoromethoxyphenyl)-ureido]-1H-imidazol-2-ylmethyl}benzoic acid]
29 | 1 to 10 | CCCCc1ccc(NC(=O)Nc2[nH]c(Cc3ccc(OCC(=O)O)cc3)nc2C(N)=O)cc1 [Compound A39, (4-{5-[3-(4-Butylphenyl)ureido]-4-carbamoyl-1H-imidazol-2-ylmethyl}phenoxy)acetic acid]
